The text below walks through data of ChEMBL document CHEMBL4373715, “Discovery and Biological Evaluations of Halogenated 2,4-Diphenyl Indeno[1,2-b]pyridinol Derivatives as Potent Topoisomerase IIα-Targeted Chemotherapeutic Agents for Breast Cancer” (J Med Chem, 2019).

Each structure is given as a SMILES string. Calls of active or inactive are those of the source. The calls are words filed in the database; no cut-off is given here.

The subject of data set [1] is MDA-MB-231. The data set can be described thus: Antitumor activity against human MDA-MB-231 cells expressing luciferase xenografted in mouse assessed as reduction in tumor weight at 12 mg/kg, iv administered once daily for 10 days measured 18 days post-last dose by bioluminescent imaging analysis. It counts as functional, organism-based.
Data set [2] deals with HCT-15. The data set can be described thus: Antiproliferative activity against human HCT15 cells measured after 72 hrs by EZ-Cytox assay. It counts as functional, cell-based. Conditions: HCT-15, 72 h.
Data set [3] relates to DU-145. The data set is described as follows: Antiproliferative activity against human DU145 cells measured after 72 hrs by EZ-Cytox assay. It counts as functional, cell-based. Particulars: DU-145, 72 h.
In data set [4] the test system is HeLa. The data set is described as follows: Antiproliferative activity against human HeLa cells measured after 72 hrs by EZ-Cytox assay. It counts as functional, cell-based.
For data set [5], the target named is DNA topoisomerase 2-alpha (Homo sapiens) (UniProt P11388). The data set can be described thus: Inhibition of recombinant human topoisomerase 2alpha-mediated relaxation of supercoiled pBR322 DNA at 100 uM measured after 30 mins by ethidium bromide staining based agarose gel electrophoresis relative to control.
For data set [6], the system named is Calf thymus DNA. The data set is described as follows: Inhibition of EtBr binding to calf thymus DNA up to 40 uM measured after 30 mins by fluorescence assay. It counts as nucleic-acid assay. Particulars: Bos taurus.
The target in data set [7] is DNA topoisomerase 2-alpha (Homo sapiens) (UniProt P11388). The data set can be described thus: Poison activity at recombinant human topoisomerase-2 alpha assessed as stabilization of enzyme-DNA cleavage complex by measuring linear DNA formation at 500 uM using supercoiled pBR322 DNA as substrate after 60 mins by agarose gel electrophoresis method.
For data set [8] the target is unchanged. The data set is described as follows: Poison activity at topoisomerase-2 alpha in human T47D cells assessed as stabilization of enzyme-DNA cleavage complex by measuring reduction in topo-2alpha level at 50 uM measured after 2 hrs in presence of etoposide by Western blot analysis. It counts as cell-based.
A short description of data set [9]: Stability in mouse plasma assessed as parent compound remaining at 1 mM measured after 0.25 hrs by LC-MS/MS analysis. It counts as ADME, cell-free. Conditions: read-out: Stability.
The nature of data set [10]: Stability in mouse plasma assessed as parent compound remaining at 1 mM measured after 1 hr by LC-MS/MS analysis. Particulars: read-out: Stability. It counts as ADME, cell-free.
Data set [11] in a line: Stability in mouse plasma assessed as parent compound remaining at 1 mM measured after 4 hrs by LC-MS/MS analysis. It counts as ADME, cell-free. Particulars: 1000 µM.
Data set [12] in a line: Stability in rat plasma assessed as parent compound remaining at 1 mM measured after 0.25 hrs by LC-MS/MS analysis. It counts as ADME, cell-free. Conditions: read-out: Stability.
A short description of data set [13]: Stability in rat plasma assessed as parent compound remaining at 1 mM measured after 1 hr by LC-MS/MS analysis. It counts as ADME, cell-free. Conditions: read-out: Stability.
Data set [14] is described as follows: Stability in rat plasma assessed as parent compound remaining at 1 mM measured after 2 hrs by LC-MS/MS analysis. It counts as ADME, cell-free. Conditions: 1000 µM.
Data set [15] can be described thus: Stability in human plasma assessed as parent compound remaining at 1 mM measured after 4 hrs by LC-MS/MS analysis. It counts as ADME, cell-free. Particulars: read-out: Stability.
The nature of data set [16]: Protein binding in rat plasma assessed as unbound fraction at 1 mM measured immediately by LC-MS/MS analysis. It counts as ADME, cell-free.
Data set [17] can be described thus: Protein binding in human plasma assessed as unbound fraction at 1 mM measured immediately by LC-MS/MS analysis. It counts as ADME, cell-free.
The nature of data set [18]: Toxicity in female ICR mouse assessed as physical abnormalities at 50 to 100 mg/kg, iv administered as single dose measured up to 7 days. It counts as organism-based. Particulars: in vivo, 168 h.
Data set [19] can be described thus: Toxicity in male ICR mouse assessed as mortality at 50 mg/kg, iv administered as single dose measured daily for 7 days (reference value: 0%). Conditions: in vivo. It counts as organism-based.
The nature of data set [20]: Toxicity in male ICR mouse assessed as mortality at 100 mg/kg, iv administered as single dose measured daily for 7 days (reference value: 0%). It counts as organism-based. Particulars: in vivo.
The nature of data set [21]: Toxicity in female ICR mouse assessed as mortality at 100 mg/kg, iv administered as single dose measured daily for 7 days (reference value: 0%). It counts as organism-based. Particulars: in vivo.
In data set [22] the test system is MDA-MB-231. The data set can be described thus: Antiproliferative activity against human MDA-MB-231 cells measured after 72 hrs by Ez-cytox assay. It counts as functional, cell-based. Particulars: MDA-MB-231, 72 h.

Sequence of DNA topoisomerase 2-alpha (Homo sapiens) (P11388 whole entry): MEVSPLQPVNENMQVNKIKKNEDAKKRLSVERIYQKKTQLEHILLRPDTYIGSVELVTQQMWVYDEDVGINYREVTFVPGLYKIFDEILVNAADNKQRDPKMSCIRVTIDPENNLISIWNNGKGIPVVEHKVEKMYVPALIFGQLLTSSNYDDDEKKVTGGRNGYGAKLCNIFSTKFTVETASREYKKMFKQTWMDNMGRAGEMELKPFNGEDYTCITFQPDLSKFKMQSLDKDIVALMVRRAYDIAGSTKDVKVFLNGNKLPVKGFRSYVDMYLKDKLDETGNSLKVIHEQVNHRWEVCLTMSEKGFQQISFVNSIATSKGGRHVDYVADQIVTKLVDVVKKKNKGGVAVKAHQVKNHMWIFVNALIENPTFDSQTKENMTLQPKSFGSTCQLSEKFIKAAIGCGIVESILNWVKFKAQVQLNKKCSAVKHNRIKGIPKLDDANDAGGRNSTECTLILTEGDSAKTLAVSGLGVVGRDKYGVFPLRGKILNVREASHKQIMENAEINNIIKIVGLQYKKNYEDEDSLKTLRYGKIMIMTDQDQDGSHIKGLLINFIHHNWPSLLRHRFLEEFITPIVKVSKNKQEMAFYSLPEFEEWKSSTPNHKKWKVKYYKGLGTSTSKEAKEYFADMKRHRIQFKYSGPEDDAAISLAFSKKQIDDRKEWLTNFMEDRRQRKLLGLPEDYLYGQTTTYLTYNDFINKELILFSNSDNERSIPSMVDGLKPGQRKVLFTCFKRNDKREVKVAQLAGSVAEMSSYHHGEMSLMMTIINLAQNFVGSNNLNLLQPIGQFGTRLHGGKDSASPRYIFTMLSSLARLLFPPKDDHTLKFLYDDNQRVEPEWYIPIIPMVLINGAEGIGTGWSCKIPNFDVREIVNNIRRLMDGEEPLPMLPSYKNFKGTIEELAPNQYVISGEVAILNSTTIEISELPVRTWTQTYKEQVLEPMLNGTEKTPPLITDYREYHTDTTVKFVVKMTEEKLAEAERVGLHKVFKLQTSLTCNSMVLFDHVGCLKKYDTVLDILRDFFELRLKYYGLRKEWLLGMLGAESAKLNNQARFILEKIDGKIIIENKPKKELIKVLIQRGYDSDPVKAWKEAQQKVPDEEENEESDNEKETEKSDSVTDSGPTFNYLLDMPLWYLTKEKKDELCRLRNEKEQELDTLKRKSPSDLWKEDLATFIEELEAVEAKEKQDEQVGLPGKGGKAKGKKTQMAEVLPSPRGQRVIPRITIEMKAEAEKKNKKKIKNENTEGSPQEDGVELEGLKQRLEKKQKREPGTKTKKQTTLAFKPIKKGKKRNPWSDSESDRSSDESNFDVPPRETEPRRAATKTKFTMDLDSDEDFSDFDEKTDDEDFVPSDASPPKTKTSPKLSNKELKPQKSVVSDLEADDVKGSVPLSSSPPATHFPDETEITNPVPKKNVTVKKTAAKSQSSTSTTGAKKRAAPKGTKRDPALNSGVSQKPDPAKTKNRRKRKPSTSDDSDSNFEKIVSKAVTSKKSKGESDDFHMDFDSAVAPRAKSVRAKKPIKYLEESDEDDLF

As to `Oc1ccc(-c2cc(-c3ccccc3Cl)nc3c2Cc2c(O)cccc2-3)cc1`, the outcome in data set [1], in [7] and in data set [8] was Active. For the same compound, the IC50 is 14 nM in data set [2], 72 nM in data set [3], 2460 nM in data set [4] and 2700 nM in data set [22]. In addition, in data set [5], the inhibition stood at 100%. The inhibition result in [6] is “inactive”. The remaining at 0.25 h was 109% in data set [9] and 102% in data set [12]. Also, the remaining at 1 h was 110% in data set [10] and 111% in [13]. The Stability was 130.8% in data set [11] and 119.6% in data set [14]. For the same compound, the remaining at 4 h in data set [15] is 105%. The fraction unbound at 0 h in data set [16] and in [17] was 1 in each case. In addition, in data set [18], the Activity entry was “Non-Toxic”. Further, the mortality at 168 h in [19], in [20] and in [21] was 0% throughout.
